Laboratory results from patent EP0075626A1, “Novel rutin nona- and deca(H-)sulfate salts, methods of preparing novel salts, and use of novel salts of complement inhibitors” (AMERICAN CYANAMID COMPANY, priority 1981, dated 1983).

Biological target: T1, activated complement protein Cl (Homo sapiens, UniProt P09871)
T1 sequence (P09871 16-437 limits assumed): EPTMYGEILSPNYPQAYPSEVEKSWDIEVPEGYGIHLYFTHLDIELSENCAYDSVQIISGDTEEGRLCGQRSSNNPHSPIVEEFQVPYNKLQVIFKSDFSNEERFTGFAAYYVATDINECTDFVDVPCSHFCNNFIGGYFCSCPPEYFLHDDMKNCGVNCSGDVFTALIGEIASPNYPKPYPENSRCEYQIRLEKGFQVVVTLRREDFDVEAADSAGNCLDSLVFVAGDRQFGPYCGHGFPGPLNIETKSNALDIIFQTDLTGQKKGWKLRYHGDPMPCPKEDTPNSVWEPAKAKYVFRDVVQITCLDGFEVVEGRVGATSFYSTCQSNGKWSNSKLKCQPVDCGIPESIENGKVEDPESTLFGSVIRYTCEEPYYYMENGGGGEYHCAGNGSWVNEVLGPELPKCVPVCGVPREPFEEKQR
T1 sequence (P09871 438-688 limits assumed): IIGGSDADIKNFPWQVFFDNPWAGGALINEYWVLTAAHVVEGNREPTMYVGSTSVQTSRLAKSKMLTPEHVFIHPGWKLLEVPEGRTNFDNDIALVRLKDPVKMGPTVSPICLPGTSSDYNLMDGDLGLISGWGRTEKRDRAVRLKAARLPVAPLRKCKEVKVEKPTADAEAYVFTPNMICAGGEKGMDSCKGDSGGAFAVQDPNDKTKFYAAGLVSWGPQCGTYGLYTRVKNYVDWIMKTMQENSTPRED
Assay: Test Code 026 (C 1 inhibitor): protection of fluid phase C2 from activated C1 in the presence of C4, serial dilution assay
Format: biochemical
Conditions: for times as active as the mixture of hexa- through deca- salts produced by Example 2 of European Application No. 13470A: Test Code 026, worked out from well numbers, two-fold serial dilutions; for In Vitro Activity Test Code 026: activity in wells, two-fold serial dilution assay, the higher the well number the higher the activity
Excerpt: An active inhibitor protects C2 from Cl and C4.
This test measures activity in wells by a serial dilution assay. The higher the well number the higher is the activity. The serial dilutions are two-fold, so that in the test shown above the rutin deca(H-)sulfate sodium salt in accordance with this invention is 16 times as active as the mixture of hexa- through deca- salts produced by Example 2 of European Application No. 13470A, whilst the rutin nona(H-)sulfate sodium salt in accordance with this invention is 8 times as active as the aforesaid mixture.

Substance | times as active as the mixture of hexa- through deca- salts produced by Example 2 of European Application No. 13470A [times] | In Vitro Activity Test Code 026
Rutin nona (H-sulfate) Sodium Salt [Rutin nona(H-)sulfate sodium salt] | 8 | +10
Rutin deca (H-sulfate) Sodium Salt [Rutin deca(H-)sulfate sodium salt] | 16 | +11
